According to PubChem BioAssay AID1918942 (Molecular Pharmacology Branch, DTP, NCI, 2023):
Values joined by “and” are separate entries in the source; they are usually repeats but may differ in a detail not shown here. Equal values may be shown once. Blank lines part the entries; values can stand above or below the molecule they belong to.

System: 743489-274-T-PDC complex spheroid viability
Assay: Anticancer human tumor 743489-274-T-PDC patient-derived renal cell carcinoma cell line growth inhibition
Conditions: for viability, T/C: stronger effect = lower value
Summary of the method: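 Drug combinations with the LSD1 inhibitor iadademstat tested on tumor cells co-cultured as spheroids with endothelial cells and mesenchymal stem cells. Concentrations descended in half-log increments from clinical Cmax or 10 microM.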

[1] = curve of first compound, second compound 0.1 µM
[2] = curve of first compound, second compound 0.316 µM
[3] = curve of first compound, second compound 1 µM
[4] = curve of first compound, second compound 3.16 µM
[5] = curve of first compound, second compound 10 µM
[6] = second compound 0.1 µM, first compound 0.000316 µM
[7] = second compound 0.1 µM, first compound 0.001 µM
[8] = second compound 0.1 µM, first compound 0.00316 µM
[9] = second compound 0.1 µM, first compound 0.01 µM
[10] = second compound 0.1 µM, first compound 0.0316 µM
[11] = second compound 0.1 µM, first compound 0.1 µM
[12] = second compound 0.316 µM, first compound 0.000316 µM
[13] = second compound 0.316 µM, first compound 0.001 µM
[14] = second compound 0.316 µM, first compound 0.00316 µM
[15] = second compound 0.316 µM, first compound 0.01 µM
[16] = second compound 0.316 µM, first compound 0.0316 µM
[17] = second compound 0.316 µM, first compound 0.1 µM
[18] = second compound 1 µM, first compound 0.000316 µM
[19] = second compound 1 µM, first compound 0.001 µM
[20] = second compound 1 µM, first compound 0.00316 µM
[21] = second compound 1 µM, first compound 0.01 µM
[22] = second compound 1 µM, first compound 0.0316 µM
[23] = second compound 1 µM, first compound 0.1 µM
[24] = second compound 3.16 µM, first compound 0.000316 µM
[25] = second compound 3.16 µM, first compound 0.001 µM
[26] = second compound 3.16 µM, first compound 0.00316 µM
[27] = second compound 3.16 µM, first compound 0.01 µM
[28] = second compound 3.16 µM, first compound 0.0316 µM
[29] = second compound 3.16 µM, first compound 0.1 µM
[30] = second compound 10 µM, first compound 0.000316 µM
[31] = second compound 10 µM, first compound 0.001 µM
[32] = second compound 10 µM, first compound 0.00316 µM
[33] = second compound 10 µM, first compound 0.01 µM
[34] = second compound 10 µM, first compound 0.0316 µM
[35] = second compound 10 µM, first compound 0.1 µM
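Note: spheroids exposed to compounds for 7 days before readout.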
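Throughout, for viability, T/C: 100% = DMSO vehicle control wells.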

SMILES: CC(C)CC(NC(=O)CNC(=O)c1cc(Cl)ccc1Cl)B1OC(=O)CC(CC(=O)O)(C(=O)O)O1 (stereo not drawn) + NC1CC1c1ccc(-c2cccc(O)c2)cc1
- IC50 [1]: 83.1 nM
- IC50 [2]: > 100 nM
- IC50 [3]: 84.5 nM
- IC50 [4]: > 100 nM
- IC50 [5]: 49.9 nM
- viability, T/C [6]: 105%
- viability, T/C [7]: 114%
- viability, T/C [8]: 97.8%
- viability, T/C [9]: 80.7%
- viability, T/C [10]: 74.3%
- viability, T/C [11]: 45%
- viability, T/C [12]: 102%
- viability, T/C [13]: 102%
- viability, T/C [14]: 94.5%
- viability, T/C [15]: 77.6%
- viability, T/C [16]: 76.5%
- viability, T/C [17]: 52.8%
- viability, T/C [18]: 103%
- viability, T/C [19]: 106%
- viability, T/C [20]: 104%
- viability, T/C [21]: 80%
- viability, T/C [22]: 66.1%
- viability, T/C [23]: 46.6%
- viability, T/C [24]: 90%
- viability, T/C [25]: 105%
- viability, T/C [26]: 102%
- viability, T/C [27]: 68.2%
- viability, T/C [28]: 60.8%
- viability, T/C [29]: 45.2%
- viability, T/C [30]: 95.8%
- viability, T/C [31]: 108%
- viability, T/C [32]: 101%
- viability, T/C [33]: 80.1%
- viability, T/C [34]: 59.7%
- viability, T/C [35]: 37.7%

- IC50 (curve of compound): > 10000 nM
SMILES: CC1COCCN1c1cc(C2(S(C)(=N)=O)CC2)nc(-c2ccnc3[nH]ccc23)n1 (stereo not drawn)
- viability, T/C (compound 0.0316 µM): 93.4% and 107%
- viability, T/C (compound 0.1 µM): 112% and 104%
- viability, T/C (compound 0.316 µM): 99.9% and 87%
- viability, T/C (compound 1 µM): 93.9% and 91.4%
- viability, T/C (compound 3.16 µM): 100% and 90.3%
- viability, T/C (compound 10 µM): 81.3% and 63.8%

- IC50 (curve of compound): > 1000 nM
SMILES: CC1COCCN1c1cc(-c2ccnn2C)c2ccnc(-c3ccn[nH]3)c2n1 (stereo not drawn)
- viability, T/C (compound 0.00316 µM): 102% and 81.5%
- viability, T/C (compound 0.01 µM): 107%
- viability, T/C (compound 0.0316 µM): 78.8% and 87.5%
- viability, T/C (compound 0.1 µM): 70.9% and 71.9%
- viability, T/C (compound 0.316 µM): 71.5% and 56.4%
- viability, T/C (compound 1 µM): 64.2% and 53.2%

SMILES: Nc1ncn(C2CC(O)C(CO)O2)c(=O)n1 (stereo not drawn) + NC1CC1c1ccc(-c2cccc(O)c2)cc1
- IC50 [1]: > 1000 nM
- IC50 [2]: > 1000 nM
- IC50 [3]: > 1000 nM
- IC50 [4]: > 1000 nM
- IC50 [5]: > 1000 nM
- viability, T/C [8]: 109%
- viability, T/C [9]: 101%
- viability, T/C [10]: 97.9%
- viability, T/C [11]: 95.1%
- viability, T/C (second compound 0.1 µM, first compound 0.316 µM): 91.2%
- viability, T/C (second compound 0.1 µM, first compound 1 µM): 117%
- viability, T/C [14]: 104%
- viability, T/C [15]: 101%
- viability, T/C [16]: 97.7%
- viability, T/C [17]: 91.5%
- viability, T/C (second compound 0.316 µM, first compound 0.316 µM): 102%
- viability, T/C (second compound 0.316 µM, first compound 1 µM): 95.3%
- viability, T/C [20]: 107%
- viability, T/C [21]: 110%
- viability, T/C [22]: 94.1%
- viability, T/C [23]: 89.6%
- viability, T/C (second compound 1 µM, first compound 0.316 µM): 90%
- viability, T/C (second compound 1 µM, first compound 1 µM): 93%
- viability, T/C [26]: 93.2%
- viability, T/C [27]: 102%
- viability, T/C [28]: 105%
- viability, T/C [29]: 88.2%
- viability, T/C (second compound 3.16 µM, first compound 0.316 µM): 82.5%
- viability, T/C (second compound 3.16 µM, first compound 1 µM): 86.8%
- viability, T/C [32]: 102%
- viability, T/C [33]: 126%
- viability, T/C [34]: 104%
- viability, T/C [35]: 99.7%
- viability, T/C (second compound 10 µM, first compound 0.316 µM): 83.2%
- viability, T/C (second compound 10 µM, first compound 1 µM): 88.6%

- IC50 (curve of compound): > 100 nM
SMILES: Cn1ncnc1C1c2n[nH]c(=O)c3cc(F)cc(c23)NC1c1ccc(F)cc1 (stereo not drawn)
- viability, T/C (compound 0.000316 µM): 88.5% and 99.7%
- viability, T/C (compound 0.001 µM): 100% and 110%
- viability, T/C (compound 0.00316 µM): 90.2% and 98.6%
- viability, T/C (compound 0.01 µM): 95.9% and 90.8%
- viability, T/C (compound 0.0316 µM): 93.7% and 92.8%
- viability, T/C (compound 0.1 µM): 91.4% and 84.3%

SMILES: Cn1ncnc1C1c2n[nH]c(=O)c3cc(F)cc(c23)NC1c1ccc(F)cc1 (stereo not drawn) + NC1CC1c1ccc(-c2cccc(O)c2)cc1
- IC50 [1]: > 100 nM
- IC50 [2]: > 100 nM
- IC50 [3]: > 100 nM
- IC50 [4]: > 100 nM
- IC50 [5]: > 100 nM
- viability, T/C [6]: 118%
- viability, T/C [7]: 100%
- viability, T/C [8]: 102%
- viability, T/C [9]: 82.8%
- viability, T/C [10]: 92.4%
- viability, T/C [11]: 90.4%
- viability, T/C [12]: 106%
- viability, T/C [13]: 106%
- viability, T/C [14]: 101%
- viability, T/C [15]: 96.1%
- viability, T/C [16]: 98.3%
- viability, T/C [17]: 94.1%
- viability, T/C [18]: 93.1%
- viability, T/C [19]: 103%
- viability, T/C [20]: 100%
- viability, T/C [21]: 93%
- viability, T/C [22]: 84.6%
- viability, T/C [23]: 97%
- viability, T/C [24]: 97.9%
- viability, T/C [25]: 104%
- viability, T/C [26]: 97.8%
- viability, T/C [27]: 99.1%
- viability, T/C [28]: 87.8%
- viability, T/C [29]: 96.9%
- viability, T/C [30]: 93.8%
- viability, T/C [31]: 111%
- viability, T/C [32]: 97.1%
- viability, T/C [33]: 105%
- viability, T/C [34]: 100%
- viability, T/C [35]: 90.8%

SMILES: NS(=O)(=O)OCC1CC(n2ccc3c(NC4CCc5ccccc54)ncnc32)CC1O (stereo not drawn) + NC1CC1c1ccc(-c2cccc(O)c2)cc1
- IC50 [1]: > 3000 nM
- IC50 [2]: > 3000 nM
- IC50 [3]: > 3000 nM
- IC50 [4]: > 3000 nM
- IC50 [5]: > 3000 nM
- viability, T/C (second compound 0.1 µM, first compound 0.00949 µM): 98%
- viability, T/C (second compound 0.1 µM, first compound 0.03 µM): 107%
- viability, T/C (second compound 0.1 µM, first compound 0.0949 µM): 127%
- viability, T/C (second compound 0.1 µM, first compound 0.3 µM): 154%
- viability, T/C (second compound 0.1 µM, first compound 0.949 µM): 154%
- viability, T/C (second compound 0.1 µM, first compound 3 µM): 134%
- viability, T/C (second compound 0.316 µM, first compound 0.00949 µM): 98.3%
- viability, T/C (second compound 0.316 µM, first compound 0.03 µM): 97.4%
- viability, T/C (second compound 0.316 µM, first compound 0.0949 µM): 125%
- viability, T/C (second compound 0.316 µM, first compound 0.3 µM): 150%
- viability, T/C (second compound 0.316 µM, first compound 0.949 µM): 134%
- viability, T/C (second compound 0.316 µM, first compound 3 µM): 149%
- viability, T/C (second compound 1 µM, first compound 0.00949 µM): 108%
- viability, T/C (second compound 1 µM, first compound 0.03 µM): 111%
- viability, T/C (second compound 1 µM, first compound 0.0949 µM): 125%
- viability, T/C (second compound 1 µM, first compound 0.3 µM): 152%
- viability, T/C (second compound 1 µM, first compound 0.949 µM): 168%
- viability, T/C (second compound 1 µM, first compound 3 µM): 137%
- viability, T/C (second compound 3.16 µM, first compound 0.00949 µM): 96.5%
- viability, T/C (second compound 3.16 µM, first compound 0.03 µM): 104%
- viability, T/C (second compound 3.16 µM, first compound 0.0949 µM): 122%
- viability, T/C (second compound 3.16 µM, first compound 0.3 µM): 145%
- viability, T/C (second compound 3.16 µM, first compound 0.949 µM): 140%
- viability, T/C (second compound 3.16 µM, first compound 3 µM): 130%
- viability, T/C (second compound 10 µM, first compound 0.00949 µM): 90%
- viability, T/C (second compound 10 µM, first compound 0.03 µM): 98.6%
- viability, T/C (second compound 10 µM, first compound 0.0949 µM): 129%
- viability, T/C (second compound 10 µM, first compound 0.3 µM): 153%
- viability, T/C (second compound 10 µM, first compound 0.949 µM): 150%
- viability, T/C (second compound 10 µM, first compound 3 µM): 142%

- IC50 (curve of compound): 1730 nM and 753 nM
SMILES: COc1ccc([C@@H](O)c2cc(-c3ncnc4cc(N5CCOCC5)ccc34)c(F)cc2Cl)nn1
- viability, T/C (compound 0.0316 µM): 108% and 93.4%
- viability, T/C (compound 0.1 µM): 100% and 95.8%
- viability, T/C (compound 0.316 µM): 90.5% and 72.5%
- viability, T/C (compound 1 µM): 59.4% and 43.6%
- viability, T/C (compound 3.16 µM): 38.7% and 21.3%
- viability, T/C (compound 10 µM): 20.8% and 19.4%
